According to patent US7968585B2, “Inhibitors of 11-beta-hydroxysteroid dehydrogenase 1” (Eli Lilly and Company, priority 2006, dated 2011):

Columns and labels:
[1] = target: recombinant human 11β-HSD type 1 enzyme (Homo sapiens, UniProt P28845); assay: 11β-HSD Type 1 Enzyme Assay (NADPH fluorescence); assay type: biochemical; settings: three hour incubation, read-out: Human 11-βHSD1 IC50
Protocol: 11β-HSD Type 1 Enzyme Assay
Human 11β-HSD type 1 activity is measured by assaying NADPH production by fluorescence assay. Solid compounds are dissolved in DMSO to a concentration of 10 mM. Twenty microliters of each are then transferred to a column of a 96-well polypropylene Nunc plate where they are further diluted 50-fold followed by subsequent two-fold titration, ten times across the plate with additional DMSO using a Tecan Genesis 200 automated system. Plates are then transferred to a Tecan Freedom 200 system with an attached Tecan Temo 96-well head and an Ultra 384 plate reader. Reagents are supplied in 96-well polypropylene Nunc plates and are dispensed individually into black 96-well Molecular Devices High Efficiency assay plates (40 μL/well capacity) in the following fashion: 9 μL/well of substrate (2.22 mM NADP, 55.5 μM Cortisol, 10 mM Tris, 0.25% Prionex, 0.1% Triton X100), 3 μL/well of water to compound wells or 3 μL to control and standard wells, 6 μL/well recombinant human 11β-HSD type 1 enzyme, 2 μL/well of compound dilutions. […] Plates are then shaken once more for 15 seconds then placed into an Ultra 384 microplate reader (355EX/460EM) for detection of NADPH fluorescence.

11β-HSD1 = target: T1, 11β-HSD1 (Homo sapiens, UniProt P28845); assay: Human Aortic Smooth Muscle Cell Assay (cortisone to cortisol conversion); assay type: cell-based; settings: primary human aortic smooth muscle cells (AoSMC), hTNFα induced, cortisol immunoassay
T1 construct: assay medium containing 12 ng/mL hTNFα to induce expression of 11β-HSD1; endogenous in cells; host or cells: primary human aortic smooth muscle cells (AoSMC), induced with hTNFα
T1 sequence (P28845 whole entry): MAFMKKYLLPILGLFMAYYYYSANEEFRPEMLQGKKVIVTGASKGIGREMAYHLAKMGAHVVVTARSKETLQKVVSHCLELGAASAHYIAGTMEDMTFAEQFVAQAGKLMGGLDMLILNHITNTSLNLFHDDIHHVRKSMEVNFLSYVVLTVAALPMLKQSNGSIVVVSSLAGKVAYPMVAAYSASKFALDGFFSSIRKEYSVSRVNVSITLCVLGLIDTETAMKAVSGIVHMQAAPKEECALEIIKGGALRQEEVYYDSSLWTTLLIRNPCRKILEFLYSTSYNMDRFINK
Protocol: Human Aortic Smooth Muscle Cell Assay
Primary human aortic smooth muscle cells (AoSMC) are cultured in 5% FBS growth medium to a passage number of 6, then pelleted by centrifugation and resuspended at a density of 9×10^4 cells/mL in 0.5% FBS assay medium containing 12 ng/mL hTNFα to induce expression of 11β-HSD1. Cells are seeded into 96-well tissue culture assay plates at 100 μL/well (9×10^3 cells/well) and incubated for 48 hours at 37° C., 5% CO2. Following induction, cells are incubated for 4 hours at 37° C., 5% CO2 in assay medium containing test compounds then treated with 10 μL/well of 10 μM cortisone solubilized in assay medium, and incubated for 16 hours at 37° C., 5% CO2. Medium from each well is transferred to a plate for subsequent analysis of cortisol using a competitive fluorescence resonance time resolved immunoassay. In solution, an allophycocyanin (APC)-cortisol conjugate and free cortisol analyte compete for binding to a mouse anti-cortisol antibody/Europium (Eu)-anti mouse IgG complex. Higher levels of free cortisol result in diminishing energy transfer from the Europium-IgG to the APC-cortisol complex resulting in less APC fluorescence. Fluorescent intensities for Europium and APC are measured using a LJL Analyst AD. Europium and APC excitation is measured using 360 nm excitation and 615 nm and 650 nm emission filters respectively. Time resolved parameters for Europium were 1000 μs integration time with a 200 μs delay. APC parameters are set at 150 μs integration time with a 50 μs delay. Fluorescent intensities measured for APC are modified by dividing by the Eu fluorescence (APC/Eu). This ratio is then used to determine the unknown cortisol concentration by interpolation using a cortisol standard curve fitted with a 4-parameter logistic equation. These concentrations are then used to determine compound activity by plotting concentration versus % inhibition, fitting with a 4-parameter curve and reporting the IC50.

cortisone conversion = assay: Acute In Vivo Cortisone Conversion Assay; settings: male C57BL/6 mice, oral dose of 10 mg/kg, cortisone challenge after 16 hours, serum cortisol
Protocol: Acute In Vivo Cortisone Conversion Assay
In general, compounds are dosed orally into mice, the mice are challenged with a subcutaneous injection of cortisone at a set timepoint after compound injection, and the blood of each animal is collected some time later. Separated serum is then isolated and analyzed for levels of cortisone and cortisol by LC-MS/MS, followed by calculation of mean cortisol and percent inhibition of each dosing group. Specifically, male C57BL/6 mice are obtained from Harlan Sprague Dawley at average weight of 25 grams. Exact weights are taken upon arrival and the mice randomized into groups of similar weights. Compounds are prepared in 1% w-w HEC, 0.25% w-w polysorbate 80, 0.05% w-w Dow Corning antifoam #1510-US at various doses based on assumed average weight of 25 grams. Compounds are dosed orally, 200 μl per animal, followed by a subcutaneous dose, 200 μl per animal, of 30 mg/kg cortisone at 1 to 24 hours post compound dose. At 10 minutes post cortisone challenge, each animal is euthanized for 1 minute in a CO2 chamber, followed by blood collection via cardiac puncture into serum separator tubes. Once fully clotted, tubes are spun at 2500×g, 4° C. for 15 minutes, the serum transferred to wells of 96-well plates (Corning Inc, Costar #4410, cluster tubes, 1.2 ml, polypropylene), and the plates are frozen at −20° C. until analysis by LC-MS/MS. […]

recombinant human 11β-HSD type 1 enzyme, sequence (P28845 whole entry): as above

IC50 [1] [nM] | IC50 (11β-HSD1) [nM] | Structure (SMILES) | % Inhibition after 16 hours (dose of 10 (mg/kg)) (cortisone conversion) [%]
552 | 21.5 | O=C1N(Cc2c(Cl)cc(-c3ccc(F)cc3)cc2Cl)CCC12CCc1n[nH]cc1C2 (stereo not shown) [Example 14] | –
888 | 20.5 | O=C(c1ccc(-c2cc(Cl)c(CN3CCC4(CCCCC4)C3=O)c(Cl)c2)cc1)N1CCN(CCF)CC1 [Example 6, 2-{3,5-Dichloro-4′-[4-(2-fluoro-ethyl)-piperazine-1-carbonyl]-biphenyl-4-ylmethyl}-2-aza-spiro[4.5]decan-1-one] | 41.2
– | 47 | O=C(c1ccc(-c2cc(Cl)c(CN3CCC4(CCCCC4)C3=O)c(Cl)c2)cc1)N1CCC(C(F)(F)F)CC1 [Example 5, 2-[3,5-Dichloro-4′-(4-trifluoromethyl-piperidine-1-carbonyl)-biphenyl-4-ylmethyl]-2-aza-spiro[4.5]decan-1-one] | 69.3
